Where “and” joins values, the source holds several entries; their conditions need not be identical. Equal values may be shown once. Marks after values point to notes of the source that are not given here. Non-standard residues stand in square brackets, D forms with d. Residues, ends and D or L forms follow the SMILES beside them. *: point of attachment. Asu = N[C@@H](CCCCCC(=O)O)C(=O)O; NHOH = ON*
Tests used:
[1] = biological target: T1, HDAC8 (Homo sapiens, UniProt Q9BY41); assay: Recombinant HDAC µSPOT microarray binding assay;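 note: peptide µSPOT slides incubated with varying HDAC enzyme concentrations, imaged signal intensity fitted by four-parameter variable-slope regression, EC50 is enzyme concentration giving half-maximal binding, pH 7.4 HEPES buffer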
T1 construct: HDAC8 (full length, C-terminal His tag, BPS Bioscience, cat. #: 50008); purchased BPS Bioscience 50008
T1 sequence (Q9BY41 1-377): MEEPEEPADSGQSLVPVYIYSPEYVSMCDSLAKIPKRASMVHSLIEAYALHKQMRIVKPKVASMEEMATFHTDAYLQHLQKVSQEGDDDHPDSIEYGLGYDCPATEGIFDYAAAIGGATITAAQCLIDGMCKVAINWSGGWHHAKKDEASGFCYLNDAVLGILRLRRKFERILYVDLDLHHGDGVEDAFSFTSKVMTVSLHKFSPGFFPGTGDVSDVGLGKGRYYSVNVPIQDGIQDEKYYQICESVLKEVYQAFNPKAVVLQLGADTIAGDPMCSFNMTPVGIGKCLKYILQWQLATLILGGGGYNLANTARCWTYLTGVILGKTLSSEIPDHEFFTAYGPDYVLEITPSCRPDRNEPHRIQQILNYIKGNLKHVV

[2] = biological target: T2, HDAC2 (Homo sapiens, UniProt Q92769); assay: HDAC inhibition assay (fluorogenic, Ac-Leu-Gly-Lys(Ac)-AMC); type: biochemical; details: for HDAC2 dose-response data (relative enzyme activity), Fig. 6 + S. Fig. 10: duplicate columns
T2 construct: HDAC2 (full length, C-terminal His tag, BPS Bioscience, cat. #: 50002); purchased BPS Bioscience 50002

[3] = biological target: T1, HDAC8; assay: HDAC inhibition assay (fluorogenic, Ac-Leu-Gly-Lys(Tfa)-AMC); type: biochemical; details: for HDAC8 dose-response data (relative enzyme activity, replicate values), Fig. 6 + S. Fig. 10: two replicate columns per inhibitor; for HDAC8 dose-response data (relative enzyme activity), Fig. 6 + S. Fig. 10: duplicate columns
[4] = biological target: T3, HDAC1 (Homo sapiens, UniProt Q13547); assay: HDAC inhibition assay (fluorogenic, Ac-Leu-Gly-Lys(Ac)-AMC); type: biochemical; details: for HDAC1 dose-response data (relative enzyme activity), Fig. 6 + S. Fig. 10: duplicate columns
T3 construct: HDAC1 (full length, C-terminal His tag, C-terminal FLAG tag, BPS Bioscience, cat. #: 50051); FLAG (C); purchased BPS Bioscience 50051

[5] = biological target: T4, HDAC3/NCoR2 (Homo sapiens, UniProt O15379); assay: as above; type: biochemical; details: for HDAC3 dose-response data (relative enzyme activity), Fig. 6 + S. Fig. 10: duplicate columns
T4 construct: HDAC3/NCoR2 (full length, C-terminal His tag, NCoR2 N-terminal GST tag); purchased BPS Bioscience 50003

[6] = biological target: T5, HDAC6 (Homo sapiens, UniProt Q9UBN7); assay: as above; type: biochemical; details: HDAC6, replicates
T5 construct: HDAC6 (full length, BPS Bioscience, cat. #: 50056); purchased BPS Bioscience 50056
T5 sequence (Q9UBN7 1-1215): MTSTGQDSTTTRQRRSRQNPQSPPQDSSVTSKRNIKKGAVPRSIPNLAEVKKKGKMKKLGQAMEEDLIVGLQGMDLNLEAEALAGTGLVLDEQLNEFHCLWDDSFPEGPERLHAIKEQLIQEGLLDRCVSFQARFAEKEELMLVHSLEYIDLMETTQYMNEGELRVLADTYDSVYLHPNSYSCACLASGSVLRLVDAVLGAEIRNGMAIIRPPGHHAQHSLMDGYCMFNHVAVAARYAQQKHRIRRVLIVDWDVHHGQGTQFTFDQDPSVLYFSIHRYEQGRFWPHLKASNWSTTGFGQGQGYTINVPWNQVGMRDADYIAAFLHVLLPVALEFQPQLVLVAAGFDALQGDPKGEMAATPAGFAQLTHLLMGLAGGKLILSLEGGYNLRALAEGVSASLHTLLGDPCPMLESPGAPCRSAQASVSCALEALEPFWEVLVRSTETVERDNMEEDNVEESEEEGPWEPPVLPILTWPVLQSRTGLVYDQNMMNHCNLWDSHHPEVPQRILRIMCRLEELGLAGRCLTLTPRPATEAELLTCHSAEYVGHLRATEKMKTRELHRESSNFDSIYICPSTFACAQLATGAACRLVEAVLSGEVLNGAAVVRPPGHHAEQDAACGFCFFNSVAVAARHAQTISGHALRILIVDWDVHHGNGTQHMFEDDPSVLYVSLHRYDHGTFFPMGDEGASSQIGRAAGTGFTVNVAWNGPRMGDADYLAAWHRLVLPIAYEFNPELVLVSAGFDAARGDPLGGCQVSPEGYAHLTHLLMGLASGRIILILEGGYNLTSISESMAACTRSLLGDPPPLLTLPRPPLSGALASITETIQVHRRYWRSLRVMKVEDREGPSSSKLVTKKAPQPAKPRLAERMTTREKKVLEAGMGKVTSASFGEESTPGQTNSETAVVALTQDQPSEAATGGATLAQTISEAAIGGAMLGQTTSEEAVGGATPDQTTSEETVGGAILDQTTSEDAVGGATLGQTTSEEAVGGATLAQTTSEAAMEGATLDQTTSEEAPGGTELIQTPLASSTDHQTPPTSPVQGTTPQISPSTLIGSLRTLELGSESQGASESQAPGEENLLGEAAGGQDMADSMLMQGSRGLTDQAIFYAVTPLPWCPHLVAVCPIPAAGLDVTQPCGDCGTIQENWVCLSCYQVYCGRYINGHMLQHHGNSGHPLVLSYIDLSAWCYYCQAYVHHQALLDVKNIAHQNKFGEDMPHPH

[7] = biological target: T3, HDAC1; assay: Recombinant HDAC µSPOT microarray binding assay
Experimental: Experiments were performed twice, data were obtained with Array Analyze software (Active Motif), and data analysis and representation were performed with the GraphPad Prism 7 software. Outliers were curated manually and data were fitted to nonlinear regression [log(agonist) vs. response—variable slope (four parameters)]. […] Non-sigmoidal curves were denoted as not determined (N.D.) The pEC50 values were determined as the concentration of HDAC enzyme required for half-maximal binding signal.

[8] = biological target: T2, HDAC2; assay: Recombinant HDAC µSPOT microarray binding assay
[9] = biological target: T4, HDAC3/NCoR2; assay: Recombinant HDAC µSPOT microarray binding assay
[10] = log[inhibitor(M)] -10,5850266520292*, whole line marked with asterisks

T4 sequence (O15379 whole entry): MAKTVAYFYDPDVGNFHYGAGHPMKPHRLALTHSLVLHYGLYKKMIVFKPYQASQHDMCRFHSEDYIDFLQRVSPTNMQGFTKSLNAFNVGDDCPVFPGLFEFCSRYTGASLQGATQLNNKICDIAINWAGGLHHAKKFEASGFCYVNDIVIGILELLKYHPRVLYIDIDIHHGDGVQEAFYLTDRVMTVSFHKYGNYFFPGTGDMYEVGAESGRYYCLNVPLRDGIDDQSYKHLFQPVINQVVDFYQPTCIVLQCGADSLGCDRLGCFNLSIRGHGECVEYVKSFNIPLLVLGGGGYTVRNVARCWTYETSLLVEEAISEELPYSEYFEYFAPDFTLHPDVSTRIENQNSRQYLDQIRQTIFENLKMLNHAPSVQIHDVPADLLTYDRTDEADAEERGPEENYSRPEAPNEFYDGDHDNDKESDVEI
T4 sequence (Q9Y618 389-480 partner limits assumed): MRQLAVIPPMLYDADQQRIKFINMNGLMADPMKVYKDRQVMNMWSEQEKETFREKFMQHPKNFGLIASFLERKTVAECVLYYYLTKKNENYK
T3 sequence (Q13547 whole entry): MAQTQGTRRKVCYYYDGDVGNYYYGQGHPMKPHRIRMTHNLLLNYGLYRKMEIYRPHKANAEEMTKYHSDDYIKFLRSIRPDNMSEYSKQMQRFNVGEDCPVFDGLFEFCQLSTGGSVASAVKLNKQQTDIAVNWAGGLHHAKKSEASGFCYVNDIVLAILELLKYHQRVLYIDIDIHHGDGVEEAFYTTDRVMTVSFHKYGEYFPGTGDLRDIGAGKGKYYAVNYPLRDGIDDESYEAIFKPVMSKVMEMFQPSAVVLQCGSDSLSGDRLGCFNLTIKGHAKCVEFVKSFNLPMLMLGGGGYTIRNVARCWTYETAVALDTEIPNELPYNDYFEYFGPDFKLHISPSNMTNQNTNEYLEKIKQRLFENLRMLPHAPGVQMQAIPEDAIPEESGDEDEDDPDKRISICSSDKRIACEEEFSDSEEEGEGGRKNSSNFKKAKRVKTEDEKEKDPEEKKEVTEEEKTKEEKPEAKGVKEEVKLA
T2 sequence (Q92769 whole entry): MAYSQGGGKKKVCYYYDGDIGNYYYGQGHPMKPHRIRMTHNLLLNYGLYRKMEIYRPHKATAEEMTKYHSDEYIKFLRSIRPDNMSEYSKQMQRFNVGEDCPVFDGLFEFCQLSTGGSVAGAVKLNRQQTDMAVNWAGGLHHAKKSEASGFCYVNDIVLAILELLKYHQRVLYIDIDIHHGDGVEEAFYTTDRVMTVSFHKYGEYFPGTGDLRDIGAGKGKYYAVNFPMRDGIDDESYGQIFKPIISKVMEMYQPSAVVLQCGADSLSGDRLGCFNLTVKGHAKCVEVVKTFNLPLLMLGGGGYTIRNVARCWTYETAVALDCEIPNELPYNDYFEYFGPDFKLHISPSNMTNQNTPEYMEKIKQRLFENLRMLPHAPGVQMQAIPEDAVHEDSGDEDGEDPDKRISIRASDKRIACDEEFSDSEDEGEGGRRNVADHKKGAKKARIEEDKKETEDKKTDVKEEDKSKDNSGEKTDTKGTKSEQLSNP

SMILES: CC[C@H](C)[C@H](NC(=O)[C@@H](NC(=O)[C@H](CC(N)=O)NC(C)=O)C(C)C)C(=O)N[C@@H](CCCNC(=N)N)C(=O)N[C@@H](CC(=O)O)C(=O)N[C@@H](C)C(=O)N[C@H](C(=O)N[C@H](C(=O)N[C@@H](Cc1ccc(O)cc1)C(=O)N[C@H](C(=O)N[C@@H](CCC(=O)O)C(=O)N[C@@H](Cc1c[nH]cn1)C(=O)N[C@@H](C)C(=O)N[C@@H](CCCCCC(=O)NO)C(=O)N[C@@H](CCCNC(=N)N)C(=O)N[C@@H](CCCCN)C(=O)N[C@@H](Cc1c[nH]c2ccccc12)C(N)=O)[C@@H](C)O)[C@@H](C)O)C(C)C [17a] (Ac-NVIRDAVTYTEHA[Asu](NHOH)RKW-NH2)
- EC50 [1]: > 25.1 nM
- HDAC2 dose-response data (relative enzyme activity), Fig. 6 + S. Fig. 10 ([2]; log[inhibitor(M)] -5): 11.53 and 14.13
- HDAC2 dose-response data (relative enzyme activity), Fig. 6 + S. Fig. 10 ([2]; log[inhibitor(M)] -5.69897): 38.85 and 44.3
- HDAC2 dose-response data (relative enzyme activity), Fig. 6 + S. Fig. 10 ([2]; log[inhibitor(M)] -7.79588): 99.37 and 102.1
- HDAC2 dose-response data (relative enzyme activity), Fig. 6 + S. Fig. 10 [2, 10]: 100,76* and 101,65*
- Ki ([2]; resynthesized peptide in solution, Cheng-Prusoff, n = 2): 183 ± 1 nM
- Ki [3]: 7640 ± 60 nM
- HDAC8 dose-response data (relative enzyme activity, replicate values), Fig. 6 + S. Fig. 10 ([3]; Inhibitor conc [M] -8.49485 (log)): 101.42 and 103.54
- HDAC8 dose-response data (relative enzyme activity, replicate values), Fig. 6 + S. Fig. 10 ([3]; Inhibitor conc [M] -9.19382 (log)): 101.25 and 102.69
- HDAC8 dose-response data (relative enzyme activity, replicate values), Fig. 6 + S. Fig. 10 ([3]; Inhibitor conc [M] given as -7.09691 (log)): 100.44 and 104.26
- HDAC8 dose-response data (relative enzyme activity, replicate values), Fig. 6 + S. Fig. 10 ([3]; Inhibitor conc [M] given as -7.79588 (log)): 103.27 and 103.5
- HDAC8 dose-response data (relative enzyme activity, replicate values), Fig. 6 + S. Fig. 10 ([3]; Inhibitor conc [M] given as -9.89279 (log)): 103.01 and 103.7
- HDAC8 dose-response data (relative enzyme activity, replicate values), Fig. 6 + S. Fig. 10 ([3]; Inhibitor conc [M] given as -10.585 (log)): 99,9* and 101,68*
- HDAC8 dose-response data (relative enzyme activity), Fig. 6 + S. Fig. 10 ([3]; Inhibitor conc [M] -4.30103): 25.68 and 25
- HDAC8 dose-response data (relative enzyme activity), Fig. 6 + S. Fig. 10 ([3]; Inhibitor conc [M] -5): 60.57 and 62.81
- HDAC8 dose-response data (relative enzyme activity), Fig. 6 + S. Fig. 10 ([3]; Inhibitor conc [M] -5.69897): 94.41 and 91.83
- HDAC8 dose-response data (relative enzyme activity), Fig. 6 + S. Fig. 10 ([3]; Inhibitor conc [M] -6.39794): 100.36 and 103.01
- Ki [4]: 198 ± 1 nM
- HDAC1 dose-response data (relative enzyme activity), Fig. 6 + S. Fig. 10 ([4]; log[inhibitor(M)] -4.30103): 2.18 and 2.15
- HDAC1 dose-response data (relative enzyme activity), Fig. 6 + S. Fig. 10 ([4]; log[inhibitor(M)] -5): 8.98 and 8.99
- HDAC1 dose-response data (relative enzyme activity), Fig. 6 + S. Fig. 10 ([4]; log[inhibitor(M)] -5.69897): 31.34 and 30.75
- HDAC1 dose-response data (relative enzyme activity), Fig. 6 + S. Fig. 10 ([4]; log[inhibitor(M)] -6.39794): 69.51 and 67.92
- HDAC1 dose-response data (relative enzyme activity), Fig. 6 + S. Fig. 10 ([4]; log[inhibitor(M)] -7.09691): 91.81 and 91.08
- HDAC1 dose-response data (relative enzyme activity), Fig. 6 + S. Fig. 10 ([4]; log[inhibitor(M)] -7.79588): 100.43 and 97.85
- HDAC1 dose-response data (relative enzyme activity), Fig. 6 + S. Fig. 10 ([4]; log[inhibitor(M)] -8.49485): 101.87 and 100.28
- HDAC1 dose-response data (relative enzyme activity), Fig. 6 + S. Fig. 10 ([4]; log[inhibitor(M)] -9.19382): 101.68 and 99.1
- HDAC1 dose-response data (relative enzyme activity), Fig. 6 + S. Fig. 10 ([4]; log[inhibitor(M)] -9.89279): 102.02 and 100.95
- HDAC1 dose-response data (relative enzyme activity), Fig. 6 + S. Fig. 10 [4, 10]: 100,29* and 101,16*
- Ki [5]: 90.7 ± 0.3 nM
- HDAC3 dose-response data (relative enzyme activity), Fig. 6 + S. Fig. 10 ([5]; log[inhibitor(M)] -4.30103): 1.48 and 1.63
- HDAC3 dose-response data (relative enzyme activity), Fig. 6 + S. Fig. 10 ([5]; log[inhibitor(M)] -5): 5.89 and 6.06
- HDAC3 dose-response data (relative enzyme activity), Fig. 6 + S. Fig. 10 ([5]; log[inhibitor(M)] -5.69897): 20.29 and 20.52
- HDAC3 dose-response data (relative enzyme activity), Fig. 6 + S. Fig. 10 ([5]; log[inhibitor(M)] -6.39794): 47.71 and 47.78
- HDAC3 dose-response data (relative enzyme activity), Fig. 6 + S. Fig. 10 ([5]; log[inhibitor(M)] -7.09691): 75.88 and 76.54
- HDAC3 dose-response data (relative enzyme activity), Fig. 6 + S. Fig. 10 ([5]; log[inhibitor(M)] -7.79588): 91.62 and 91.95
- HDAC3 dose-response data (relative enzyme activity), Fig. 6 + S. Fig. 10 ([5]; log[inhibitor(M)] -8.49485): 95.02 and 96.22
- HDAC3 dose-response data (relative enzyme activity), Fig. 6 + S. Fig. 10 ([5]; log[inhibitor(M)] -9.19382): 95.35 and 97.08
- HDAC3 dose-response data (relative enzyme activity), Fig. 6 + S. Fig. 10 ([5]; log[inhibitor(M)] -9.89279): 93.78 and 97.79
- HDAC3 dose-response data (relative enzyme activity), Fig. 6 + S. Fig. 10 [5, 10]: 97,93* and 99,33*
- residual enzymatic activity relative to control wells ([6]; log[inhibitor(M)] -4.30103): 0.85 and 0.89
- residual enzymatic activity relative to control wells ([6]; log[inhibitor(M)] -5): 2.67 and 3.1
- residual enzymatic activity relative to control wells ([6]; log[inhibitor(M)] -5.69897): 11.05 and 12.51
- residual enzymatic activity relative to control wells ([6]; log[inhibitor(M)] -6.39794): 38.36 and 40.68
- residual enzymatic activity relative to control wells ([6]; log[inhibitor(M)] -7.09691): 72.92 and 74.07
- residual enzymatic activity relative to control wells ([6]; log[inhibitor(M)] -7.79588): 92.5 and 90.62
- residual enzymatic activity relative to control wells ([6]; log[inhibitor(M)] -8.49485): 97.52 and 97.55
- residual enzymatic activity relative to control wells ([6]; log[inhibitor(M)] -9.19382): 99.98 and 98.59
- residual enzymatic activity relative to control wells ([6]; log[inhibitor(M)] -9.89279): 98.46 and 98.12
- residual enzymatic activity relative to control wells ([6]; log[inhibitor(M)] -10.585): 98,71* and 97,59*
- EC50 [7]: > 25.1 nM
- EC50 [8]: 2 nM
- EC50 [9]: 3.16 nM

From PMC7782793, “Hydroxamic acid-modified peptide microarrays for profiling isozyme-selective interactions and inhibition of histone deacetylases” (Nature Communications, 2021)
